In patent US9302991B2, “Arylamide derivatives as TTX-S blockers” (RaQualia Pharma Inc., priority 2010, dated 2016):
pIC50: −log10 of the molar value.

Each compound was assayed against T1, human Nav1.7 channels (Homo sapiens, UniProt Q15858) (assay: FRET assay, human Nav1.7 (EFS on FDSS)). Details: CHO cells expressing human Nav1.7, read-out: IC50 against Nav1.7.
T1 construct: expressed in transfected cells; host or cells: CHO
T1 sequence (Q15858 whole entry): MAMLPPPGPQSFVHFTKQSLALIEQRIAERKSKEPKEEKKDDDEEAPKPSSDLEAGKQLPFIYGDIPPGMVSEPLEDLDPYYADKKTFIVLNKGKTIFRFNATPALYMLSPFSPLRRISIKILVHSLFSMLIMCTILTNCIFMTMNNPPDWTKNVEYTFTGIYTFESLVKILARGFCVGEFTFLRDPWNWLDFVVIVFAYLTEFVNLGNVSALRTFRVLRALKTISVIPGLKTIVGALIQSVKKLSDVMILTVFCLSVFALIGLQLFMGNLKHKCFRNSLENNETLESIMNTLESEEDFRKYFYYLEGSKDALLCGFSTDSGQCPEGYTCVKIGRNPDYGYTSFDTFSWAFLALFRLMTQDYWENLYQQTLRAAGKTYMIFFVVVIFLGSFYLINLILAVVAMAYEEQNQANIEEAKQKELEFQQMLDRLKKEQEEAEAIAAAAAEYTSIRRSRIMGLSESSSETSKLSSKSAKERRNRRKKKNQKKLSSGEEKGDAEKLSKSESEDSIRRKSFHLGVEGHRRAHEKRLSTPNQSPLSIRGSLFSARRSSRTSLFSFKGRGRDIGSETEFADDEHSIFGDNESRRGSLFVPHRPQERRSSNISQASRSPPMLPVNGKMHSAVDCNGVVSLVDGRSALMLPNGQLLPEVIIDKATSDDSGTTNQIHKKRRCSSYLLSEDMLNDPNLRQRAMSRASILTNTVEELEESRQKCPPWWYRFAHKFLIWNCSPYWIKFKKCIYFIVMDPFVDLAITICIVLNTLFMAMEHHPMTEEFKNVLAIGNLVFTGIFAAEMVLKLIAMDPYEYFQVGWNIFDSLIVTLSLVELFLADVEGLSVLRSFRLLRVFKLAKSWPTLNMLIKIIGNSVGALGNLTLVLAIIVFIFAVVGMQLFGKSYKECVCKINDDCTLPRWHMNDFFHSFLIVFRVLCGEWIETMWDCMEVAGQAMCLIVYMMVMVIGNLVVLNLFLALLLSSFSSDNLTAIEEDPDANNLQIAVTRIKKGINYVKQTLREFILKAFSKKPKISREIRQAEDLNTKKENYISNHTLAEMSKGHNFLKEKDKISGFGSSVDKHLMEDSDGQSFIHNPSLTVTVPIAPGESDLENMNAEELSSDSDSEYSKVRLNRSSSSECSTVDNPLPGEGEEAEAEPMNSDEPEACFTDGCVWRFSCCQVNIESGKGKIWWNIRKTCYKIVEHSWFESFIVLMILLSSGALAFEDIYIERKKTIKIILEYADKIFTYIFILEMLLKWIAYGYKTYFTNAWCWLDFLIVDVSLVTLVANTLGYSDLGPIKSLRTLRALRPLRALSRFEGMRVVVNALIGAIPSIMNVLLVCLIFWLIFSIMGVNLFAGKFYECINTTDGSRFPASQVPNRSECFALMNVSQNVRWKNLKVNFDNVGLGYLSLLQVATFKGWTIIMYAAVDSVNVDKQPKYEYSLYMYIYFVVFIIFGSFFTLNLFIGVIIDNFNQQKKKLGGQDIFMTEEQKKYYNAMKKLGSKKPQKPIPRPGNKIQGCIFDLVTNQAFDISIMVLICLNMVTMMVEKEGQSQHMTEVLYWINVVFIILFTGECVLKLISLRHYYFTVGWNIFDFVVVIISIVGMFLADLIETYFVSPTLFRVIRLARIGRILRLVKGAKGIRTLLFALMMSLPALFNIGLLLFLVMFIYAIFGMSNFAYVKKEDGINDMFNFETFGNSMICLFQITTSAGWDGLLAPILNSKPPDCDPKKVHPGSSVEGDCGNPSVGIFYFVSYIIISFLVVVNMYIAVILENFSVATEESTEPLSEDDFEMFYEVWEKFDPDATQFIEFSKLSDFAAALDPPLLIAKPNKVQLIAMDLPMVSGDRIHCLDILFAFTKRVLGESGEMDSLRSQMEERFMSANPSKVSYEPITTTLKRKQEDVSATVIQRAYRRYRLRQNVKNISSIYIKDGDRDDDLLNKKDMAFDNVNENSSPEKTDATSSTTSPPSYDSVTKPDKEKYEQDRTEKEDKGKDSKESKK
Type: cell-based
Outline: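 IC50 was derived from normalized 440 nm fluorescence ratios of the EFS-evoked membrane-potential response read on FDSS. Recombinant CHO cells were sequentially dye-loaded with coumarin/oxonol FRET pair at room temperature in pH 7.4 buffer before compound addition.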
For `CCOc1nc(OCC(F)(F)F)ccc1CNC(=O)c1cc(C)nc(NC(C)=O)n1` [Example 338, 2-acetamido-N-((2-ethoxy-6-(2,2,2-trifluoroethoxy)pyridin-3-yl)methyl)-6-methylpyrimidine-4-carboxamide], the pIC50 was greater than 6.00.
For `Cc1cc(C(=O)NCc2cnc(OCC(F)(F)F)cc2C)nc(NC(=O)C(C)C)n1` [Example 353, 2-isobutyramido-6-methyl-N-((4-methyl-6-(2,2,2-trifluoroethoxy)pyridin-3-yl)methyl)pyrimidine-4-carboxamide], the pIC50 was greater than 6.00.
`Cc1cc(C(=O)NCc2cnc(OCC(F)(F)F)c(C)c2)nc(NC(=O)C2CC2)n1` [Example 365, 2-(cyclopropanecarboxamido)-6-methyl-N-((5-methyl-6-(2,2,2-trifluoroethoxy)pyridin-3-yl)methyl)pyrimidine-4-carboxamide] was tested, and the pIC50 was greater than 6.00.
In the case of `Cc1cc(C(=O)NCc2cnc(OCC(F)(F)F)c(C)c2)nc(NC(=O)C(C)C)n1` [Example 366, 2-isobutyramido-6-methyl-N-((5-methyl-6-(2,2,2-trifluoroethoxy)pyridin-3-yl)methyl)pyrimidine-4-carboxamide], the pIC50 was greater than 6.00.
`CC(=O)Nc1cc(C(=O)NCc2cnc(OCC(F)(F)F)c(C)c2)ccn1` [Example 367, 2-acetamido-N-((5-methyl-6-(2,2,2-trifluoroethoxy)pyridin-3-yl)methyl)isonicotinamide] gave a pIC50 greater than 6.00.
In the case of `Cc1cc(CNC(=O)c2ccnc(NC(=O)C(C)C)c2)cnc1OCC(F)(F)F` [Example 370, 2-isobutyramido-N-((5-methyl-6-(2,2,2-trifluoroethoxy)pyridin-3-yl)methyl)isonicotinamide], the pIC50 was greater than 6.00.
In the case of `COc1nc(OCC(F)(F)F)ccc1CNC(=O)c1cc(C)nc(NC(=O)C(C)C)n1` [Example 374, 2-isobutyramido-N-((2-methoxy-6-(2,2,2-trifluoroethoxy)pyridin-3-yl)methyl)-6-methylpyrimidine-4-carboxamide], the pIC50 was greater than 6.00.
`Cc1cc(C(=O)NCc2cnc(OCC(F)(F)F)c(Cl)c2)nc(NC(=O)C(C)C)n1` [Example 385, N-((5-chloro-6-(2,2,2-trifluoroethoxy)pyridin-3-yl)methyl)-2-isobutyramido-6-methylpyrimidine-4-carboxamide] was tested, and the pIC50 was greater than 6.00.
For `CC(=O)Nc1cc(C(=O)N(C)Cc2cnc(OCC(F)(F)F)c(C)c2)cc(C)n1` [Example 394, 2-acetamido-N,6-dimethyl-N-((5-methyl-6-(2,2,2-trifluoroethoxy)pyridin-3-yl)methyl)isonicotinamide], the pIC50 was greater than 6.00.
`O=C(NCc1ccc(OCC(F)(F)F)nc1)c1ccnc(NC(=O)C2CC2)n1` [Example 397, 2-(cyclopropanecarboxamido)-N-((6-(2,2,2-trifluoroethoxy)pyridin-3-yl)methyl)pyrimidine-4-carboxamide] showed a pIC50 greater than 6.00.
Work on `Cc1cc(OCC(F)(F)F)ncc1CNC(=O)c1ccnc(NC(=O)C2CC2)n1` [Example 403, 2-(cyclopropanecarboxamido)-N-((4-methyl-6-(2,2,2-trifluoroethoxy)pyridin-3-yl)methyl)pyrimidine-4-carboxamide] yielded a pIC50 greater than 6.00.
Compound `O=C(NCc1cccc(C(F)(F)F)c1)c1ccnc(NC(=O)C2CC2)n1` [Example 404, 2-(cyclopropanecarboxamido)-N-(3-(trifluoromethyl)benzyl)pyrimidine-4-carboxamide] has a pIC50 greater than 6.00.
Compound `Cc1nc(OCC(F)(F)F)ccc1CNC(=O)c1ccnc(NC(=O)C2CC2)n1` [Example 407, 2-(cyclopropanecarboxamido)-N-((2-methyl-6-(2,2,2-trifluoroethoxy)pyridin-3-yl)methyl)pyrimidine-4-carboxamide] has a pIC50 greater than 6.00.
`CC(C)C(=O)Nc1nccc(C(=O)NCc2cnc(OCC(F)(F)F)c(Cl)c2)n1` [Example 412, N-((5-chloro-6-(2,2,2-trifluoroethoxy)pyridin-3-yl)methyl)-2-isobutyramidopyrimidine-4-carboxamide] was tested, and the pIC50 was greater than 6.00.
With `COc1cc(CNC(=O)c2cc(C)nc(NC(=O)C3CC3)n2)cnc1OCC(F)(F)F` [Example 442, 2-(cyclopropanecarboxamido)-N-((5-methoxy-6-(2,2,2-trifluoroethoxy)pyridin-3-yl)methyl)-6-methylpyrimidine-4-carboxamide] the pIC50 was greater than 6.00.
Compound `COc1cc(CNC(=O)c2ccnc(NC(=O)C3CC3)n2)cnc1OCC(F)(F)F` [Example 444, 2-(cyclopropanecarboxamido)-N-((5-methoxy-6-(2,2,2-trifluoroethoxy)pyridin-3-yl)methyl)pyrimidine-4-carboxamide] has a pIC50 greater than 6.00.
`Cc1cc(C(=O)NCc2ccc(OCCC(F)(F)F)nc2)cc(NC(=O)C(C)C)n1` [Example 490, 2-isobutyramido-6-methyl-N-((6-(3,3,3-trifluoropropoxy)pyridin-3-yl)methyl)isonicotinamide] showed a pIC50 greater than 6.00.
For `Cc1cc(C(=O)NCc2ccc(OCC(F)(F)F)nc2C)cc(NC(=O)C(C)C)n1` [Example 493, 2-isobutyramido-6-methyl-N-((2-methyl-6-(2,2,2-trifluoroethoxy)pyridin-3-yl)methyl)isonicotinamide], the pIC50 was greater than 6.00.
`CC(=O)Nc1cc(C(=O)NCc2cccc(C(F)(F)F)c2)cc(C)n1` [Example 532, 2-acetamido-6-methyl-N-(3-(trifluoromethyl)benzyl)isonicotinamide] showed a pIC50 greater than 6.00.
Compound `CCC(=O)Nc1cc(C(=O)NCc2cnc(OCC(F)F)c(Cl)c2)cc(C)n1` [Example 618, N-((5-chloro-6-(2,2-difluoroethoxy)pyridin-3-yl)methyl)-2-methyl-6-propionamidoisonicotinamide] has a pIC50 greater than 6.00.
In the case of `Cc1cc(C(=O)NCc2cnc(OCC(F)F)c(Cl)c2)cc(NC(=O)C(C)C)n1` [Example 620, N-((5-chloro-6-(2,2-difluoroethoxy)pyridin-3-yl)methyl)-2-isobutyramido-6-methylisonicotinamide], the pIC50 was greater than 6.00.
`O=C(NCc1ccc(OCC(F)(F)C(F)F)nc1)c1ccnc(NC(=O)C2CC2)c1` [Example 635, 2-(cyclopropanecarboxamido)-N-((6-(2,2,3,3-tetrafluoropropoxy)pyridin-3-yl)methyl)isonicotinamide] was tested, and the pIC50 was greater than 6.00.
For `O=C(NCc1ccc(OCC(F)(F)C(F)F)nc1)c1ccnc(NC(=O)C2CC2)n1` [Example 651, 2-(cyclopropanecarboxamido)-N-((6-(2,2,3,3-tetrafluoropropoxy)pyridin-3-yl)methyl)pyrimidine-4-carboxamide], the pIC50 was greater than 6.00.
`O=C(NCc1cnc(OCC(F)F)c(Cl)c1)c1ccnc(NC(=O)C2CC2)c1` [Example 705, N-((5-chloro-6-(2,2-difluoroethoxy)pyridin-3-yl)methyl)-2-(cyclopropanecarboxamido)isonicotinamide] showed a pIC50 greater than 6.00.
With `CC(=O)Nc1cc(C(=O)NCc2cnc(OCC(F)F)c(Cl)c2)cc(C)n1` [Example 706, 2-acetamido-N-((5-chloro-6-(2,2-difluoroethoxy)pyridin-3-yl)methyl)-6-methylisonicotinamide] the pIC50 was greater than 6.00.
With `CC(=O)Nc1cc(C(=O)NCc2cnc(OCC(F)(F)F)c(-c3ccco3)c2)ccn1` [Example 770, 2-acetamido-N-((5-(furan-2-yl)-6-(2,2,2-trifluoroethoxy)pyridin-3-yl)methyl)isonicotinamide] the pIC50 was greater than 6.00.
`CC(=O)Nc1cc(C(=O)NCc2cnc(OCC(F)F)cc2C)cc(C)n1` [Example 778, 2-acetamido-N-((6-(2,2-difluoroethoxy)-4-methylpyridin-3-yl)methyl)-6-methylisonicotinamide] showed a pIC50 greater than 6.00.
For `COc1c(CNC(=O)c2cc(C)nc(NC(C)=O)c2)cccc1C(F)(F)F` [Example 819, 2-acetamido-N-(2-methoxy-3-(trifluoromethyl)benzyl)-6-methylisonicotinamide], the pIC50 was greater than 6.00.
Compound `COc1c(CNC(=O)c2ccnc(NC(=O)C(C)C)c2)cccc1C(F)(F)F` [Example 820, 2-isobutyramido-N-(2-methoxy-3-(trifluoromethyl)benzyl)isonicotinamide] has a pIC50 greater than 6.00.
`Cc1cc(C(=O)NCc2ccc(OCC(F)(F)F)nc2)cc(NC(=O)C2CC2)n1` [Example 822, 2-(cyclopropanecarboxamido)-6-methyl-N-((6-(2,2,2-trifluoroethoxy)pyridin-3-yl)methyl)isonicotinamide] was tested, and the pIC50 was greater than 6.00.
`Cc1cc(C(=O)NCc2cnc(OCC(F)F)c(Cl)c2)cc(NC(=O)C2CC2)n1` [Example 826, N-((5-chloro-6-(2,2-difluoroethoxy)pyridin-3-yl)methyl)-2-(cyclopropanecarboxamido)-6-methylisonicotinamide] was tested, and the pIC50 was greater than 6.00.
`Cc1cc(C(=O)NCc2ccc(OCC(F)(F)C(F)(F)F)nc2)cc(NC(=O)C2CC2)n1` [Example 827, 2-(cyclopropanecarboxamido)-6-methyl-N-((6-(2,2,3,3,3-pentafluoropropoxy)pyridin-3-yl)methyl)isonicotinamide] gave a pIC50 greater than 6.00.
For `Cc1cc(C(=O)NCc2cnc(OCC(F)F)c(C)c2)cc(NC(=O)C2CC2)n1` [Example 851, 2-(cyclopropanecarboxamido)-N-((6-(2,2-difluoroethoxy)-5-methylpyridin-3-yl)methyl)-6-methylisonicotinamide], the pIC50 was greater than 6.00.
`Cc1cc(C(=O)NCc2cccc(C(F)(F)F)c2)cc(NC(=O)C2CC2)n1` [Example 852, 2-(cyclopropanecarboxamido)-6-methyl-N-(3-(trifluoromethyl)benzyl)isonicotinamide] showed a pIC50 greater than 6.00.
`COc1cc(OC(F)(F)F)ccc1CNC(=O)c1ccnc(NC(=O)C(C)C)c1` [Example 869, 2-isobutyramido-N-(2-methoxy-4-(trifluoromethoxy)benzyl)isonicotinamide] gave a pIC50 greater than 6.00.
For `COc1cc(OC(F)(F)F)ccc1CNC(=O)c1cc(C)nc(NC(C)=O)c1` [Example 870, 2-acetamido-N-(2-methoxy-4-(trifluoromethoxy)benzyl)-6-methylisonicotinamide], the pIC50 was greater than 6.00.
Compound `COc1cc(OC(F)(F)F)ccc1CNC(=O)c1cc(C)nc(NC(=O)C(C)C)c1` [Example 871, 2-isobutyramido-N-(2-methoxy-4-(trifluoromethoxy)benzyl)-6-methylisonicotinamide] has a pIC50 greater than 6.00.
